Experiments:
[1] = tested on: Brca1/P53-deficient mice; experiment: Caspase 3 immunohistochemistry as a marker of apoptosis in the mammary gland; format: in vivo
From the text: Subsequently, the same groups of animals indicated were generated and samples were collected from the mammary glands at 1, 3, 7, 30 and 60 days post-gestation (in non-lactating multiparous) or post-weaning (in lactating multiparous, with and without treatment with cabergoline) (N = 5 mice per group at each time studied).
The left inguinal breast of each mouse was embedded in paraffin for further study. Once removed from the animals, the breasts were fixed in 4% paraformaldehyde (Scharlau FO) for 24 hours and, subsequently, they were kept in 70% ethanol at a temperature of 4 °C, until they were processed in the Comparative Molecular Pathology Service of the Salamanca Cancer Research Center. Tissues were dehydrated by three 1-hour incubations in increasing concentrations of ethanol (60%, 80%, and 100%). Three other 1-hour incubations were carried out in xylol, to replace the dehydrating agent with a substance miscible in paraffin. Finally, three other incubations of 1 hour and 20 minutes were carried out with liquid paraffin, after which blocks were made with a mould suitable for the size of the tissue in a paraffin embedding station. When the paraffin blocks were completely cold, 2-µm-thick sections were made using a rotation microtome (Leica RM2255). […]
To quantify cells positive for Ki-67 or caspase 3, the Leica Application Suite (LAS) V3.7 program was used. […]

[2] = tested on: Brca1/P53-deficient mice; experiment: Indirect estimation of recombinant P53 cells by qPCR of the WT allele (longitudinal cohort); format: in vivo; details: tumour-free mammary glands
Description: In order to obtain a suspension enriched in mouse mammary epithelial cells, from which we can obtain both RNA and proteins and also maintain acceptable viability, the protocol for obtaining mouse mammary organoids was carried out. Once the mammary glands were removed after performing the necropsy of the mouse, they were mechanically disintegrated by cutting with two scalpels. Subsequently, they were incubated in a volume of 10 mL of supplemented medium (DMEM/F12 (50%/50%), 5% fetal bovine serum, 1% penicillin/streptomycin) plus 1.25 mL of collagenase, and 1 mL of trypsin. This enzymatic digestion was carried out for 30 minutes at 37 °C in orbital agitation at 100 revolutions per minute (rpm) (= 1.666 s^-1). […]
DNA was extracted from frozen organoids obtained from mammary glands at 30 and 60 days of involution, and from tumour-free mammary glands of mice that developed breast cancer over time. The quantity and quality of DNA were quantified using a spectrophotometer (Nanodrop). Subsequently, this DNA was used to determine the recombination frequency of the P53 gene in the breasts of the different groups by Quantitative Polymerase Chain Reaction (qPCR). […]
For each sample, qPCR reactions against P53 and Tfrc were performed in parallel and in triplicate. […] The qPCR reactions and the reading of the signal were performed in the Mastercycler epgradient S Realplex2 thermal cycler from Eppendor. […]

C=CCN1C[C@H](C(=O)N(CCCN(C)C)C(=O)NCC)C[C@@H]2c3cccc4[nH]cc(c34)C[C@H]21 [cabergoline, 1-[(6-allylergolin-8ß-yl)-carbonyl]-1-[3-(dimethylamino)propyl]-3-ethylurea]
apoptosis (percentage of apoptotic cells positive against caspase 3) ([1]; 3 days of post-lactational involution, vs untreated multiparous mice, P < 0.0001): significant increase in apoptosis | basal apoptosis of the epithelium (caspase 3) ([1]; 30 days post-weaning): greater basal apoptosis of the epithelium | WT allele (proportion of WT cells) over time [2]: increase in WT cells was observed over time
